Experimental data as given in patent US20110136791A1, “COMBINATION OF A NICOTINIC RECEPTOR PARTIAL AGONIST AND OF AN ACETYLCHOLINESTERASE INHIBITOR, PHARMACEUTICAL COMPOSITION CONTAINING SAME AND USE THEREOF IN THE TREATMENT OF COGNITIVE DISORDERS” (priority 2008, published 2011).

Key:
rats with no deficit = experiment: Test for spontaneous forgetting in rats with no deficit (object recognition test, visual episodic memory); format: in vivo; conditions: rat; for Exploration time, familiar object (recalling session) / Exploration time, new object (recalling session) / Recognition index (new/(new + familiar)): p.o. 60 min before each session, 24 h forgetting period, group 2: 0.1 mg/kg, group 3: rivastigmine 0.03 mg/kg, group 4: 0.01 + 0.03 mg/kg; for Exploration time, familiar object (recalling session) / Exploration time, new object (recalling session): 3 min test; for Discrimination between the familiar object and the new object during the recalling session (in words): p.o., inactive doses, 24 hours after the learning session
Procedure: 1. Test for Spontaneous Forgetting in Rats with No Deficit
1.) Accustomization phase: In this protocol, the animals are first subjected to a session of accustomization to the environmental context (a wooden chamber of 65×45×45 cm) for a period of 2 minutes. The time spent in active locomotion is measured using a timer. 2.) Learning phase: 24 hours later, two exactly identical objects (either metal triangles or pyramids made of Lego) are placed in the experimental device. Each rat is placed in the middle of the chamber, the nose against the wall opposite that where the objects/stimulus are located. The pairs of objects presented are alternated equitably in each of the groups of rats. The animals are left in the experimental chamber until they reach a period of exploration of the two objects equal to 20 seconds, out of a maximum period of 3 minutes. As soon as the 20 seconds of exploration are reached, the rat is put back in its housing cage. […] 3.) Recalling session: The recalling session takes place after a forgetting period of 24 h for all the groups. The rats are confronted with a pair of objects consisting of the object encountered during the learning phase and an unknown object. The rats are placed in the same way as for the learning session.
This test lasts 3 minutes, during which the time spent exploring each of the 2 objects is measured.
Conversely, if the animal has forgotten the familiar object, the times spent exploring the new object and the familiar object will be similar.
(§1) For the learning and recalling sessions, the exploring of an object is counted if the animal orients its nose toward the object, inside a perimeter of 2 centimeters around said object, or if it touches it with its nose or with its feet. If the rat moves around the object or sits on it, these behaviors are not considered to be exploratory.
(§2) The raw data are expressed in seconds.
The test compounds are administered orally 60 minutes (rat study) before each of the three sessions of the protocol.
Four experimental groups are formed, said groups receiving, respectively:
During the recalling session, 24 hours after the learning session, the times spent exploring the two objects, expressed in seconds, and the recognition index (time spent exploring the new object/total time spent exploring the new and familiar objects) are measured. • Similar exploration times with respect to the familiar object and to the new object reflect the fact that the familiar object has been forgotten, and therefore that there is a visual episodic memory deficit.
Conversely, a longer exploration time for the new object than for the familiar object reflects significant recollection of the familiar object and therefore an improvement in visual episodic memory. • A relatively low recognition index reflects the fact that the familiar object has been forgotten, and therefore that there is a visual episodic memory deficit.
Conversely, a high recognition index reflects significant recollection of the familiar object, and therefore an improvement in visual episodic memory.
The above doses are expressed in base equivalent.

[1] = system: CD1-strain mice injected ICV with Aβ25-35 peptide; experiment: Test of short-term visual episodic memory deficit induced by ICV injections of β-amyloid protein 25-35 in mice (object recognition); format: in vivo, mouse; conditions: Aβ25-35 mice; for Effect on short-term recall performance levels (in words): 0.1 mg/kg each, intraperitoneally; for Exploration time, familiar object (recalling session) / Exploration time, new object (recalling session) / Recognition index (new/(new + familiar)): intraperitoneally 60 min before each session, 1 hour forgetting period, each active 0.1 mg/kg (base equivalent); for Exploration time, familiar object (recalling session) / Exploration time, new object (recalling session): 5 min test
Procedure: 2. Test of short-term visual episodic memory deficit induced by intracerebroventricular (ICV) injections of β-amyloid protein 25-35 in mice
The Aβ25-35 peptide fragment contains the 11 amino acids necessary and sufficient for inducing neurological toxicity.
The Aβ25-35 amyloid peptide is dissolved in distilled water at a final concentration of 3 mg/ml. It is then incubated at 37° C. for 4 days in order to form aggregates of toxic peptide. The control animals receive the scrambled peptide, consisting of the same amino acids, but organized according to a random sequence.
The peptide is injected intracerebroventricularly into CD1-strain mice anaesthetized with isoflurane. A microsyringe fitted with a 28-gauge needle 3 mm long is used. The needle is inserted unilaterally, 1 mm to the right of the central line equidistant from each eye and at an equal distance between the axis of the eyes and the axis of the ears. 3 μl of the aggregated peptide are injected over a period of one minute. The mice are used for the behavioral tests between 6 and 14 days after the intracerebral injection.
1.) Accustomization phase: In this protocol, the mice are first subjected to a session of accustomization to the environmental context (light grey PVC chain of 52×52×40 cm, illumination at 6 Lux) for a period of 10 minutes. The time spent in active locomotion is measured using a timer. 2.) Learning phase: 24 hours later, two exactly identical objects (either metal triangles (5.5×3.3 cm), or a square red Lego brick (3.0×3.0×3.0 cm)) are placed in the experimental device. Each mouse is placed in the middle of the chamber, the nose against the wall opposite that where the objects/stimulus are located. The pairs of objects presented are alternated equitably in each of the groups of mice. The animals are left in the experimental chamber until they reach a time spent exploring the two objects equal to 10 seconds, out of a maximum period of 3 minutes. As soon as the 10 seconds of exploration are reached, the mouse is put back in its housing cage.
3.) Recalling session: The recalling session takes place after a forgetting period of 1 hour for all the groups. […] The mice are confronted with a pair of objects consisting of the object encountered during the learning phase and an unknown object. The mice are placed in the chamber in the same way as for the learning session.
This test lasts 5 minutes, during which the time spent exploring each of the 2 objects is measured.
as §1, with “exploration” for “exploring”, “cm” for “centimeters”, “or” for “or with”
as §2
The compounds to be tested are administered intraperitoneally, 60 minutes before each of the three sessions of the protocol.
Five experimental groups were formed, receiving, respectively:
During the recalling session, i.e. 1 hour after the learning session, the times spent exploring the two objects, expressed in seconds, are measured. • Similar exploration times with respect to the familiar object and to the new object reflect the fact that the familiar object has been forgotten, and therefore that there is complete abolition of the short-term recall performance levels. • Conversely, a longer exploration time for the new object compared with the familiar object reflects a good short-term memory recall performance level.

Structure (SMILES) | Exploration time, familiar object (recalling session) (rats with no deficit) [s] | Exploration time, new object (recalling session) (rats with no deficit) [s] | Recognition index (new/(new + familiar)) (rats with no deficit) | Discrimination between the familiar object and the new object during the recalling session (in words) (rats with no deficit) | Effect on short-term recall performance levels (in words) [1] | Exploration time, familiar object (recalling session) [1] [s] | Exploration time, new object (recalling session) [1] [s] | Recognition index (new/(new + familiar)) [1]
O=C(O)/C=C/C(=O)O.O=C(Oc1ccc(Br)cc1)N1CCN2CCC1CC2 [4-bromophenyl 1,4-diazabicyclo[3.2.2]nonane-4-carboxylate (2E)-but-2-enedioate] | 10.47 ± 0.84 | 11.10 ± 1.44 | 0.50 ± 0.04 | no significant discrimination between the familiar object and the new object | do not result in an improvement in performance levels | 4.30 ± 0.70 | 6.30 ± 0.60 | 0.60 ± 0.04
COc1cc2c(cc1OC)C(=O)C(CC1CCN(Cc3ccccc3)CC1)C2 (stereo not shown) [donepezil] | – | – | – | – | do not result in an improvement in performance levels | 4.60 ± 0.70 | 5.00 ± 0.80 | 0.52 ± 0.05
CCN(C)C(=O)Oc1cccc([C@H](C)N(C)C)c1 [rivastigmine] | 10.10 ± 1.56 | 9.42 ± 1.86 | 0.48 ± 0.05 | no significant discrimination between the familiar object and the new object | – | – | – | –
